From ChEMBL document CHEMBL4130505, “4-Quinolone hybrids and their antibacterial activities” (Eur J Med Chem, 2017)
Converted amounts (≈) assume the structure as drawn.

Columns and labels:
Escherichia coli [1] = test: Potency index, ratio of ciprofloxacin EC50 to compound EC50 for antibacterial activity against Escherichia coli NCTC 10419 infected in CF mouse; format: functional
Escherichia coli [2] = test: Antibacterial activity against Escherichia coli NCTC 10419 infected in CF mouse assessed as protection against bacterial infection administered orally at 1 and 4 hrs post infection measured after 1 week; format: functional, organism-based
Escherichia coli [3] = test: Potency index, ratio of ciprofloxacin MIC to compound MIC for Escherichia coli NCTC 10419; format: functional
Escherichia coli [4] = test: Potency index, ratio of ciprofloxacin MIC to compound MIC for Escherichia coli; format: functional
Escherichia coli [5] = test: Antibacterial activity against Escherichia coli; format: functional
Klebsiella pneumoniae = test: Antibacterial activity against Klebsiella pneumoniae by microdilution method; format: functional
[6] = Solubility of the compound in water; format: physicochemical
Escherichia coli [7] = test: microbe, parasite or virus in culture; details: NCTC 10419
Description: Antibacterial activity against Escherichia coli NCTC 10419 after 18 to 20 hrs by agar dilution method

## COc1cc(Cc2cnc(/N=C3\C(=O)N(CN4CCN(c5cc6c(cc5F)c(=O)c(C(=O)O)cn6C5CC5)CC4)c4ccc(C)cc43)nc2N)cc(OC)c1OC
Escherichia coli [1]
  Ratio EC50: 2
Escherichia coli [2]
  EC50: 0.62 mg/kg
Escherichia coli [3]
  Ratio: 5.5

## O=C1OCC(OCCN2CCN(c3cc4c(cc3F)c(=O)c(C(=O)O)cn4C3CC3)CC2)=C1c1ccccc1F
Escherichia coli [4]
  Ratio: 50
Escherichia coli [5]
  MIC: 0.11 µg/mL (≈ 0.199 µM)

## CC1=NOc2c(N3CCC(C)CC3)c(F)cc3c(=O)c(C(=O)O)cn1c23
Klebsiella pneumoniae
  MIC: 8 µg/mL (≈ 22.3 µM)

## CO/N=C1\CCN(c2cc3c(cc2F)c(=O)c(C(=O)O)cn3C2CC2)CC1N.CS(=O)(=O)O (stereo unspecified)
[6]
  solubility: 22.5 mg/mL

## CC1=NOc2c(N3CCN(C)CC3)c(F)cc3c(=O)c(C(=O)O)cn1c23
Klebsiella pneumoniae
  MIC: 8 µg/mL (≈ 22.2 µM)

## CC1=NOc2c(N3CCc4ccccc4C3)c(F)cc3c(=O)c(C(=O)O)cn1c23
Klebsiella pneumoniae
  MIC: 8 µg/mL (≈ 20.3 µM)

## O=C(O)c1cn(C2CC2)c2cc(N3CCNCC3)c(F)cc2c1=O [CIPROFLOXACIN]
Escherichia coli [2]
  EC50: 1.25 mg/kg
Escherichia coli [7]
  MIC: 1.1 nM (≈ 0.364 ng/mL)
